Laboratory results taken from article PMC9986306, “Beyond CBD: Inhibitory effects of lesser studied phytocannabinoids on human voltage-gated sodium channels” (Frontiers in Physiology, 2023).
Marks after values point to notes of the source that are not given here.

Tests used:
[1] = molecular target: T1, human NaV1.1 channel (SCN1A, HEK293T cells) (Homo sapiens, UniProt P35498); assay: Planar patch-clamp, biophysical properties (activation, SSFI, recovery from SSFI); format: cell-based; details: change vs vehicle DMSO at IC50 concentration (CBD 18.5 μM, CBGA 13.6 μM, CBDVA 50 μM)
T1 construct: expressed in transfected cells
Procedure: (§1) HEK293T cells stably expressing SCN1A or SCN2A and CHO cells stably expressing SCN8A or SCN9A were maintained as previously described ([Richards et al., 2018]; [Milligan et al., 2022]).
(§2) Patch-clamp recordings were made using a Patchliner® (Nanion Technologies, Munich, Germany) in the whole-cell configuration as previously described ([Richards et al., 2018]; [Milligan et al., 2022]). Briefly, cells were prepared in suspension at a density of 1 × 10^6-5 × 10^7 cells/mL. The external recording solution comprised (in mM): 140 NaCl, 4 KCl, 1 MgCl2, 2 CaCl2, 5 D-glucose, 10 HEPES, pH 7.4 with NaOH, ∼295 mOsm. The internal recording solution comprised (in mM): 50 CsCl, 60 CsF, 10 NaCl, 20 EGTA, 10 HEPES, pH 7.2 with CsOH, ∼285 mOsm. Medium single-hole planar NPC-16 chips with an average resistance of ∼2.5 MΩ were used. Chip and whole-cell capacitance were fully compensated, and 50% series resistance compensation applied. Recordings were acquired at 50 kHz with the low pass filter set to 10 kHz in PATCHMASTER (HEKA Instruments, NY, United States) and performed at 27°C. Offline analysis was performed using Microsoft Excel, MatLab R2019a (MathWorks) and GraphPad Prism 8 (Molecular Devices).
(§3) Voltage protocols were used, as previously described ([Richards et al., 2018]). Briefly, to study the voltage-dependence of activation, cells were held at −120 mV and depolarized to test potentials, in 5 mV increments, between −120 mV and +50 mV for 100 ms. To study steady-state fast inactivation, cells were held at conditioning pre-pulse potentials ranging from −120 mV to +30 mV in 5 mV increments from a holding potential of −120 mV and a test pulse at 5 mV for 20 ms. Recovery from fast inactivation was studied by pre-pulsing the cells to 0 mV from a holding potential of −120 mV for 50 ms, to fully inactivate channels. The voltage was then stepped back to the holding potential for variable interpulse intervals (ipi from 0 to 39 ms in 3 ms increments). To test channel availability, the voltage was stepped to 0 mV for 50 ms.
(§4) To examine the voltage-dependence of activation, normalized current-voltage (I-V) relationships were converted to conductance (G) using the following equation: G = I/(V−V r ) where Vr is the reversal potential for Na^+. The voltage-dependence of conductance and availability were normalized and fitted to a Boltzmann equation: G = 1/(1 + exp [(V−V 0.5)/a]), where a is the slope of the half-maximum, V is the potential of the given pulse, and V 0.5 is the potential for the half-maximal activation/inactivation. The time course of inactivation was fitted to a single exponential function I/Imax = I0+A*exp (-t-t0/τ)+C, where I0 is the non-inactivating component, Imax is the peak current, t is time, and A is the component for the time constant τ. Time constants were plotted against voltage and the data fitted with a decaying exponential equation Y = span*exp (−K*x)+plateau, where span is the starting point of the curve, K is the decay factor, plateau is the value the curve decays to, and x is time. To measure recovery from inactivation, normalized currents were plotted against ipi and data fitted with equation I/I max = 1-exp/(rc + x), where I max is maximal current; rc recovery rate constant; x is time. Peak current (I) was plotted as fractional recovery against the recovery period by normalizing to the maximum current (Imax) during the conditioning potentials.

[2] = molecular target: T2, human NaV1.2 channel (SCN2A, HEK293T cells) (Homo sapiens, UniProt Q99250); assay: as above; format: cell-based; details: change vs vehicle DMSO at IC50 concentration (CBD 18.4 μM, CBGA 14.7 μM, CBDVA 60 μM)
T2 construct: expressed in transfected cells
Procedure: as §1, §2, §3, §4

[3] = molecular target: T3, human NaV1.6 channel (SCN8A, CHO cells) (Homo sapiens, UniProt Q9UQD0); assay: as above; format: cell-based; details: change vs vehicle DMSO at IC50 concentration (CBD 16.6 μM, CBGA 12.0 μM, CBDVA 24.1 μM)
T3 construct: expressed in transfected cells
Procedure: as §1, §2, §3, §4

[4] = molecular target: T4, human NaV1.7 channel (SCN9A, CHO cells) (Homo sapiens, UniProt Q15858); assay: as above; format: cell-based; details: change vs vehicle DMSO at IC50 concentration (CBD 11.9 μM, CBGA 16.4 μM, CBDVA 60 μM)
T4 construct: expressed in transfected cells
Procedure: as §1, §2, §3, §4

[5] = test system: Scn1a+/− mouse model of DS; parameters: method as in Anderson et al., 2021b; details: monotherapy, ref Anderson et al., 2021b; cited from earlier work
6-Hz acute seizure model = test system: 6-Hz acute seizure model; parameters: method as in Anderson et al., 2021b; details: monotherapy; ref Anderson et al., 2021b; cited from earlier work
[6] = test system: Scn1a+/− mouse model of DS; parameters: method as in Anderson et al., 2021a; Anderson et al., 2021b; details: Scn1a+/− mice, ref Anderson et al., 2021a, 2021b; cited from earlier work
[7] = test system: NaV1.1, NaV1.2, NaV1.6 and NaV1.7 channels; assay: Planar patch-clamp, IC50 values summarised across the four isoforms; format: cell-based, human; details: range over NaV1.1, NaV1.2, NaV1.6, NaV1.7; read-out: IC50 values determined here (range over isoforms)
Procedure: as §1
as §2, with “Devices). […]” for “Devices).”

T2 sequence (Q99250 whole entry): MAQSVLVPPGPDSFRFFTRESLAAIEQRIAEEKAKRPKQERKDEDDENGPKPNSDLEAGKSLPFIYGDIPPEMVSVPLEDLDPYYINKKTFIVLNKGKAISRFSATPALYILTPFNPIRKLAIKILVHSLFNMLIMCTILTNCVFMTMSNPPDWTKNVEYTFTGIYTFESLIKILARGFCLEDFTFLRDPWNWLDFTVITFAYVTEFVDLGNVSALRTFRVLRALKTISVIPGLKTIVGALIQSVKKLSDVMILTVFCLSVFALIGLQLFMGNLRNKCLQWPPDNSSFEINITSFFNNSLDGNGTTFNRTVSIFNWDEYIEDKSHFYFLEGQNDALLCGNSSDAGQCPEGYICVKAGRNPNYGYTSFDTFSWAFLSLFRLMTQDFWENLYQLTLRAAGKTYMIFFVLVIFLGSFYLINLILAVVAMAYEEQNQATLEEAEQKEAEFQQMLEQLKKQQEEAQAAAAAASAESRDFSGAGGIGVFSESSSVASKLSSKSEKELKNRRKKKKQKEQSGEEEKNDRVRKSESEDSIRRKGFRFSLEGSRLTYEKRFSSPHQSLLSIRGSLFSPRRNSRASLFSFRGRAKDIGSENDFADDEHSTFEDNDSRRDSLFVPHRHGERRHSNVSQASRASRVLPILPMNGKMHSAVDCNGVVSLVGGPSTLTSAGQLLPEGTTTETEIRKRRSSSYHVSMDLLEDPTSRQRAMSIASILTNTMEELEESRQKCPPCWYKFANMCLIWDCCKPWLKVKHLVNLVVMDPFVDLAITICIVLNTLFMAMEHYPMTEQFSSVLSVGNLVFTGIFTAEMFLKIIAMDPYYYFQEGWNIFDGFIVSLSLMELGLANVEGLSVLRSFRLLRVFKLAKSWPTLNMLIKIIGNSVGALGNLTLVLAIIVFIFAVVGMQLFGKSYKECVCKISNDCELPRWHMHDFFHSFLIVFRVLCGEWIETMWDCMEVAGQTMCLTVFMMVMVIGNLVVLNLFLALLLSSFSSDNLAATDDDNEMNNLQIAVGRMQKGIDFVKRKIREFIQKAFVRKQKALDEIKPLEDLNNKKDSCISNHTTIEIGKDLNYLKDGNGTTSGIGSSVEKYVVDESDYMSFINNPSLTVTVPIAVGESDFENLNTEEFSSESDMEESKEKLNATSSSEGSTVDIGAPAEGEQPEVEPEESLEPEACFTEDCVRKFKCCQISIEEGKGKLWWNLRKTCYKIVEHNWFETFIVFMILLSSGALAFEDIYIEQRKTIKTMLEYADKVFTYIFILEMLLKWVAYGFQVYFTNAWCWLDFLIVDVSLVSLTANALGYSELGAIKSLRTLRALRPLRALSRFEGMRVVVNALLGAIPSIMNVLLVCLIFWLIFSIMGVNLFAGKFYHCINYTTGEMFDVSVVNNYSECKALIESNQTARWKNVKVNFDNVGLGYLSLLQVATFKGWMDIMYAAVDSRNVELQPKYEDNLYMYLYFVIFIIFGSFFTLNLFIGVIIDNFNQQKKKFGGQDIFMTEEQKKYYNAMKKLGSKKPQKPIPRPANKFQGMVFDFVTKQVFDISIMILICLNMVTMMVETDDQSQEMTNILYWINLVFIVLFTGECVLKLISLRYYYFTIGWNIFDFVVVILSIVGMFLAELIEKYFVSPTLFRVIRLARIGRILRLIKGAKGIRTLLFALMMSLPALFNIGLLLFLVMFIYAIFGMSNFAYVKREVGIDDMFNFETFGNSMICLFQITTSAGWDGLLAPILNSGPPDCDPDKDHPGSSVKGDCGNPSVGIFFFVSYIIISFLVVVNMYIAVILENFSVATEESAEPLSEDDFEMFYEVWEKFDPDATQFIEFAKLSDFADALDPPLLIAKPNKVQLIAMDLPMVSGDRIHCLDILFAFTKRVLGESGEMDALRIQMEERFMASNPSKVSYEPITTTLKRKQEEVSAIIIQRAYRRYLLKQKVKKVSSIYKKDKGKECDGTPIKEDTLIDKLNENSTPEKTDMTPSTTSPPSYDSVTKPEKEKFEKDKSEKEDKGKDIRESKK
T3 sequence (Q9UQD0 whole entry): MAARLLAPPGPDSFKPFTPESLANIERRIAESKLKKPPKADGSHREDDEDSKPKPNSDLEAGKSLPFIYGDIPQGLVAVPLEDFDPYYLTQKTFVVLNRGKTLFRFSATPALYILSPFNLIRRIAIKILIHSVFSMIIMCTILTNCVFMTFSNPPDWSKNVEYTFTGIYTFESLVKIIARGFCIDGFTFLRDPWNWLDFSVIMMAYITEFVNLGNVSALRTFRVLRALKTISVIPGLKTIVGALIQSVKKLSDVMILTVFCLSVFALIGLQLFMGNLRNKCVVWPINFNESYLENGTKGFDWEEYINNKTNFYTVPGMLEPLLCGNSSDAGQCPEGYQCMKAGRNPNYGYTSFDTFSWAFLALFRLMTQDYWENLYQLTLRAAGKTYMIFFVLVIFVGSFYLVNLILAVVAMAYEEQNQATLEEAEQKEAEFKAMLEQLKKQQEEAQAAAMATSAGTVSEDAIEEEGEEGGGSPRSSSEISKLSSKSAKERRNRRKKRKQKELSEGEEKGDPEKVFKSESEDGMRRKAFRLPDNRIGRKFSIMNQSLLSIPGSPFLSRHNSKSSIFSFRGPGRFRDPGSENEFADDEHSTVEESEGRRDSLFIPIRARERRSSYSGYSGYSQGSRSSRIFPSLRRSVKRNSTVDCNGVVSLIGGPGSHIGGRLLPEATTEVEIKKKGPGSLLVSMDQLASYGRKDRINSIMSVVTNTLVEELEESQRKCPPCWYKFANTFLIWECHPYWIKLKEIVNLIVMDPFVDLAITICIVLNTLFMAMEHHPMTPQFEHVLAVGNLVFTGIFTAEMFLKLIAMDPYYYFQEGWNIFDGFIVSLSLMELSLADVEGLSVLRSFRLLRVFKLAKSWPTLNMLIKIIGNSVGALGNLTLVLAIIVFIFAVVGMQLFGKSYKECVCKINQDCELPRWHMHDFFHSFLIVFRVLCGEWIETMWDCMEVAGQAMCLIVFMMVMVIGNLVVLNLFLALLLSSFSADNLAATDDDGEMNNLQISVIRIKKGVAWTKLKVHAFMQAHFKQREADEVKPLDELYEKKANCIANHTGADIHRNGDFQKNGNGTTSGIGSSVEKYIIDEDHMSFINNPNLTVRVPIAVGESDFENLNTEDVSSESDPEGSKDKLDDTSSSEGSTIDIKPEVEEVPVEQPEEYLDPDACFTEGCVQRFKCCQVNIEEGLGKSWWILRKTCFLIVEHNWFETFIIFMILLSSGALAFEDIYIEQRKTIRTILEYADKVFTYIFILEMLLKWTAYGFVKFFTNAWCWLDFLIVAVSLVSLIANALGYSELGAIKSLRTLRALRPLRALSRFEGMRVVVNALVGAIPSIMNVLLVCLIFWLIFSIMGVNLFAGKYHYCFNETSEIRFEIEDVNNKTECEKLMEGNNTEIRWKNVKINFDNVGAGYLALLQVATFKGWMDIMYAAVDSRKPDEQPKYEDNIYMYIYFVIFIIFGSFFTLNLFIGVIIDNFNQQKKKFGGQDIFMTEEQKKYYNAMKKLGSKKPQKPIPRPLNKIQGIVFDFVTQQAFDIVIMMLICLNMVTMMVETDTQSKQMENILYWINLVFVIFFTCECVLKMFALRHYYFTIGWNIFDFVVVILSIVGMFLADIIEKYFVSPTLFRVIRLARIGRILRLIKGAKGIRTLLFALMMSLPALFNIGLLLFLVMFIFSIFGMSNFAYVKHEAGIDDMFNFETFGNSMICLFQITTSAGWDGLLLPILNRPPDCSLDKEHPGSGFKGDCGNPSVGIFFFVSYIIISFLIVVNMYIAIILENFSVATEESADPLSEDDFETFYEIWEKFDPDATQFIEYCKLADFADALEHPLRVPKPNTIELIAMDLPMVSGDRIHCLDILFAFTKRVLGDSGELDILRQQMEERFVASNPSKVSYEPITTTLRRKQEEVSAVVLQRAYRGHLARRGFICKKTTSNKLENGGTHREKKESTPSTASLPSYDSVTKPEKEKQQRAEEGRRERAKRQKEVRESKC

In the case of CCCCCc1cc(O)c(C/C=C(\C)CCC=C(C)C)c(O)c1C(=O)O [CBGA, cannabigerolic acid], the “Inactivation △ V0.5 inact” value ([1]; SSFI) is reported as 1.0 ± 1.29 mV, the “Activation △ Slope factor” value [1] is reported as 3.1 ± 1.7 and the “Activation △ V0.5 act” value [1] is reported as 3.9 ± 1.2** mV. The “Inactivation △ τinact SSFI at 5 mV” value [1] was 0.4 ± 0.1*, the “Inactivation △ V0.5 inact” value ([2]; SSFI) was −3.0 ± 1.5 mV and the “Inactivation △ slope factor” value ([2]; SSFI) was 2.5 ± 0.8**. The “Activation △ Slope factor” value [2] was 1.9 ± 1.0, the “Activation △ V0.5 act” value [2] was 1.8 ± 2.3 mV and the “Inactivation △ τinact SSFI at 5 mV” value [2] was 0.08 ± 0.1. The “Inactivation △ V0.5 inact” value ([3]; SSFI) was −0.5 ± 2.4 mV, the “Inactivation △ slope factor” value ([3]; SSFI) was 1.1 ± 0.2** and the “Activation △ Slope factor” value [3] was −0.4 ± 0.3. The “Activation △ V0.5 act” value [3] was 0.1 ± 1.6 mV, the “Inactivation △ τinact SSFI at 5 mV” value [3] was 0.2 ± 0.2 and the “Inactivation △ V0.5 inact” value ([4]; SSFI) was −5.5 ± 2.1* mV. The “Inactivation △ slope factor” value ([4]; SSFI) was 1.3 ± 0.5*, the “Activation △ Slope factor” value [4] was 1.1 ± 0.2*** and the “Activation △ V0.5 act” value [4] was 4.6 ± 1.7* mV. The “Inactivation △ τinact SSFI at 5 mV” value [4] was 0.3 ± 0.06***, the “Effect on spontaneous seizures” value [5] was “proconvulsive effects” and the “Effect in 6-Hz acute seizure model” value (6-Hz acute seizure model) was “proconvulsive effects”. The “Effect against hyperthermia-induced seizures” value [6] was “anti-convulsant properties” and the IC50 [7] was 12 to 16.4 µM.
